Six compounds from US9617267B2, “Compounds and methods for kinase modulation, and indications therefor” (Plexxikon Inc., priority 2009, dated 2017) can be followed below.

pIC50: −log10 of the molar value. Where two headings read alike, the source gives them in different places.

The target of series [1] is B-Raf V600E (Homo sapiens (Human), UniProt P15056, V600E). In words: B-Raf V600E kinase activity biochemical assay (AlphaScreen, biotin-MEK1 phosphorylation). Conditions: for IC50: B-Raf V600E; for Biochemical activity ratio V600E/C: ratio of IC50 B-Raf V600E / c-Raf-1. Summed up: (§1)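 Biotin-MEK1 phosphorylation measured after 45 min kinase reaction at RT with 100 μM ATP final; compounds tested at 8 points from 0.1 mM DMSO stock.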

Series [2] addresses CYP3A4(BFC) (Homo sapiens (Human), UniProt P08684). Briefly: CYP enzyme inhibition, fluorescent substrate BFC. Summed up:
(§2)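 IC50 values come from plotting product fluorescence against compound concentration; inhibition lowers formation of the fluorescent metabolite. Ten-point twofold dilutions in co-factor mix were held 10 minutes at 37 °C before the enzyme reaction, also run at 37 °C.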

For series [3], the target named is CYP2C9 (Homo sapiens (Human), UniProt P11712). Briefly: CYP enzyme inhibition, fluorescent substrate (MFC). A digest of the protocol:
as §2

Series [4] is described as follows: Relative solubility by turbidity threshold concentration in aqueous buffers (pH 1.5, 4.5, 6.8, 7.4). In kind it is physicochemical. The conditions noted are these: for turbidity threshold (L, M, H) 1.4: pH 1.4 [sic] (method: SGF pH 1.5); for turbidity threshold (L, M, H) 4.5: pH 4.5 (SIF); for turbidity threshold (L, M, H) 6.8: pH 6.8 (SIF); for turbidity threshold (L, M, H) 7.4: pH 7.4 (HEPES). Summed up:
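Solubility class (high >250 μM, moderate 31.3–250 μM, low <31.3 μM) comes from the concentration where absorbance reaches a 0.01 threshold, averaged across 490/535/650 nm. Samples were compound dilutions from DMSO stock, 1 μL into 99 μL buffer at pH 1.5, 4.5, 6.8 or 7.4.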

The test system of series [5] is B-Raf. In words: B-Raf kinase activity biochemical assay (AlphaScreen, biotin-MEK1 phosphorylation). The conditions noted are these: for Biochemical activity ratio B/V600E: ratio of IC50 B-Raf / B-Raf V600E; for Biochemical activity ratio B/C: ratio of IC50 B-Raf / c-Raf-1. A digest of the protocol:
as §1

The target of series [6] is B-Raf (Homo sapiens (Human), UniProt P15056). Described as above. The conditions noted are these: B-Raf. Summed up:
as §1

Series [7] deals with c-Raf-1 (Homo sapiens, UniProt P04049). Briefly: c-Raf-1 kinase activity biochemical assay (AlphaScreen, biotin-MEK1 phosphorylation). Summed up: as §1
The target in series [8] is CYP3A4(BQ) (Homo sapiens (Human), UniProt P08684). Briefly: CYP enzyme inhibition, fluorescent substrate BQ. A digest of the protocol: as §2
For series [9], the target named is CYP1A2 (Homo sapiens (Human), UniProt P05177). Briefly: CYP enzyme inhibition, fluorescent substrate (CEC). A digest of the protocol: (§3)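 Ten-point 1:1 compound dilutions in NADPH-regenerating cofactor mix, pre-incubated 10 min at 37 °C before enzyme/substrate addition: CYP1A2 0.5 pmol with 5 μM CEC, 15 min, 409 ex/460 em; CYP2D6 1.5 pmol with 1.5 μM AMMC, 30 min, 409 ex/530 em. IC50 from fluorescent product vs concentration.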

Series [10] concerns the target CYP2C19 (Homo sapiens (Human), UniProt P33261). Briefly: CYP enzyme inhibition, fluorescent substrate (CEC). Summed up:
as §2

Series [11] has as its target CYP2D6 (Homo sapiens (Human), UniProt P10635). In words: CYP enzyme inhibition, fluorescent substrate (AMMC). In kind it is in vitro ADME. The conditions noted are these: read-out: Cyp IC50 2D6. Summed up:
as §3

Where [12] appears, read: read-out: Cyp IC50 2C9, CYP2C9, substrate MFC.
[13] abbreviates: read-out: Cyp IC50 3A4(BQ), CYP3A4, substrate BQ.

CYP2C19, sequence (P33261 whole entry): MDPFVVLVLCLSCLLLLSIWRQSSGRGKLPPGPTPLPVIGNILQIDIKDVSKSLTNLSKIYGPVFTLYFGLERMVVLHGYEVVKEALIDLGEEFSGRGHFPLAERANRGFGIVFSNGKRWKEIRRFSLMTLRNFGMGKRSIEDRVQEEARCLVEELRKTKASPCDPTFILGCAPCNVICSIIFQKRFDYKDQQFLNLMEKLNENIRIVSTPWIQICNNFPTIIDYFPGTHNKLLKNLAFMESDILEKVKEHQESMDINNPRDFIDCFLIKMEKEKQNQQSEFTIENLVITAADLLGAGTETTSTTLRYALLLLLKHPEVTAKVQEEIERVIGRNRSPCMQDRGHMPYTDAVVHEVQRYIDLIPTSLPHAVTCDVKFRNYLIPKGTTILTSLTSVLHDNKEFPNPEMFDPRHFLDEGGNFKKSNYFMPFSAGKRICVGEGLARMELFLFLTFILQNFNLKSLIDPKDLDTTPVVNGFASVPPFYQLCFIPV
B-Raf V600E, sequence (P15056 whole entry V600E): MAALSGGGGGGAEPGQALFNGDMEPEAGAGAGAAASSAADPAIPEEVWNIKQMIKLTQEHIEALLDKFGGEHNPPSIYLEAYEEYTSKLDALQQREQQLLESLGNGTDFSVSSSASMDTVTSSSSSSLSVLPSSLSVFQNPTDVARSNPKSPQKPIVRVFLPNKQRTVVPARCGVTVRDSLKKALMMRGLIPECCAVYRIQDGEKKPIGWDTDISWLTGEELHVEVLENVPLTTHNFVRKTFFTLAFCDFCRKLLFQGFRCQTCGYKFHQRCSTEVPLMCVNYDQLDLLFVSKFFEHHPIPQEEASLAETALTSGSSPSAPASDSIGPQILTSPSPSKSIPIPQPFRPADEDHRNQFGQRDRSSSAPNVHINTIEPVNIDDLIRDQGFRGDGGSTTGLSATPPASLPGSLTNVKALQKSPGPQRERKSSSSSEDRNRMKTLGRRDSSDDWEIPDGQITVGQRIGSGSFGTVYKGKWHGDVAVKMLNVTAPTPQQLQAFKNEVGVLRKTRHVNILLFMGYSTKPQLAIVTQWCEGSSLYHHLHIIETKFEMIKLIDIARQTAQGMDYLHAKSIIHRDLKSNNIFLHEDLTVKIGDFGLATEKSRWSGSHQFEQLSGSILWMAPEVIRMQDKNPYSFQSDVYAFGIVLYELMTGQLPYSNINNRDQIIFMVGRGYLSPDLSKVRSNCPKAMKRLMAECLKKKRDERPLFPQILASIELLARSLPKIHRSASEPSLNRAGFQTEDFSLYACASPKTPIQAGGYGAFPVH
CYP2D6, sequence (P10635 whole entry): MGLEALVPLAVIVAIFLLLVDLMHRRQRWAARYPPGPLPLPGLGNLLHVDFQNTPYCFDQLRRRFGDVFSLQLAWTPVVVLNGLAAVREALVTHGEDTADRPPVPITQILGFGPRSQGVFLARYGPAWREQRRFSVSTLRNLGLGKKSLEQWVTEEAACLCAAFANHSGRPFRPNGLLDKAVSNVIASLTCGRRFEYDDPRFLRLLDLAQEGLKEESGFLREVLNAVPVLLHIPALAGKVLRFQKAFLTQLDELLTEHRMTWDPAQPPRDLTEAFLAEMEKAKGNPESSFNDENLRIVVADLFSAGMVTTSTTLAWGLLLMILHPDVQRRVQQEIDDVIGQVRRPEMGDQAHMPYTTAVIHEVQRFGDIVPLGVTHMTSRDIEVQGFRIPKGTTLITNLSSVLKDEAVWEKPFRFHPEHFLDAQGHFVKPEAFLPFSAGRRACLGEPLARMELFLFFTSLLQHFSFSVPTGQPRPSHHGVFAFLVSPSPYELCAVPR
CYP1A2, sequence (P05177 whole entry): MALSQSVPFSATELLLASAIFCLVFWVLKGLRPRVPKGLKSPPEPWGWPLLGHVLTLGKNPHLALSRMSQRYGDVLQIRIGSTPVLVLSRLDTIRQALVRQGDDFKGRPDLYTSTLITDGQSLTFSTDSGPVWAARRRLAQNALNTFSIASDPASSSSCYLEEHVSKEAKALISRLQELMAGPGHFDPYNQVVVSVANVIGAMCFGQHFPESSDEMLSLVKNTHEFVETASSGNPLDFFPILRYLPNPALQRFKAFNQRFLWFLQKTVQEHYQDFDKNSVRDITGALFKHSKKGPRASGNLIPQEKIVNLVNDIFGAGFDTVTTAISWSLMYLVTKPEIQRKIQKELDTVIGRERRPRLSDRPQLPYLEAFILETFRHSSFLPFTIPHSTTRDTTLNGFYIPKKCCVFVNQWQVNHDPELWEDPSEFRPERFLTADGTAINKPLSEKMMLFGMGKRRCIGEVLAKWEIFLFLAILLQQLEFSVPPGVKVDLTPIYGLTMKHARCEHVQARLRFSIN
CYP3A4(BFC), sequence (P08684 whole entry): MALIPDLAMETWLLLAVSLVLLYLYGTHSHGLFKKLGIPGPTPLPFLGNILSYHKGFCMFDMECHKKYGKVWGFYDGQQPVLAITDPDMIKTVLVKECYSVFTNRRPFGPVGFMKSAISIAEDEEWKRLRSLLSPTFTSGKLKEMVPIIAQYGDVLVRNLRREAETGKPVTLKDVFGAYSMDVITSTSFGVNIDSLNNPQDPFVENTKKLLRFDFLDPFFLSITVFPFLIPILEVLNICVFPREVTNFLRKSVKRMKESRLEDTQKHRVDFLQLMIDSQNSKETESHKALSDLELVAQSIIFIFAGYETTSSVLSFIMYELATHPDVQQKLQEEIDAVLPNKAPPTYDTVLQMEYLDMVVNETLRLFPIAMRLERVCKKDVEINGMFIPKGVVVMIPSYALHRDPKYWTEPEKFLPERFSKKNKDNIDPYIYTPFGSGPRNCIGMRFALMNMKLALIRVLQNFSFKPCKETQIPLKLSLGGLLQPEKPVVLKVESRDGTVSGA
CYP3A4(BQ), sequence (P08684 whole entry): as above
CYP2C9, sequence (P11712 whole entry): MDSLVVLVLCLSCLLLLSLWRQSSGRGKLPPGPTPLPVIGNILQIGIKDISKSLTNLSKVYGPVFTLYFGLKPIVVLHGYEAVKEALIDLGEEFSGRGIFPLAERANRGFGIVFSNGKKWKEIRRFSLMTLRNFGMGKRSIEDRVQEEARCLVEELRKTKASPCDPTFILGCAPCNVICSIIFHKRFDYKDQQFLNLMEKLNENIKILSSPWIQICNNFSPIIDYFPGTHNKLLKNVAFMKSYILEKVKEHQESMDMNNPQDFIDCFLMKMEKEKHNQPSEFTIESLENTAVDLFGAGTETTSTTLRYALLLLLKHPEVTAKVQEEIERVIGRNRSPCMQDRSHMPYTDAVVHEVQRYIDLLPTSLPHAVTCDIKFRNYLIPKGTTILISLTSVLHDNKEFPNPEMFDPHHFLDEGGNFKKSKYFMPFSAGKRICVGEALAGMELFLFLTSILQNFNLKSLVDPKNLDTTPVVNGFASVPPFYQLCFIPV
B-Raf (Homo sapiens (Human), UniProt P15056), sequence (P15056 whole entry): as the sequence (P15056 whole entry V600E) above, with E600V counted along it
c-Raf-1, sequence (P04049 whole entry, looked up): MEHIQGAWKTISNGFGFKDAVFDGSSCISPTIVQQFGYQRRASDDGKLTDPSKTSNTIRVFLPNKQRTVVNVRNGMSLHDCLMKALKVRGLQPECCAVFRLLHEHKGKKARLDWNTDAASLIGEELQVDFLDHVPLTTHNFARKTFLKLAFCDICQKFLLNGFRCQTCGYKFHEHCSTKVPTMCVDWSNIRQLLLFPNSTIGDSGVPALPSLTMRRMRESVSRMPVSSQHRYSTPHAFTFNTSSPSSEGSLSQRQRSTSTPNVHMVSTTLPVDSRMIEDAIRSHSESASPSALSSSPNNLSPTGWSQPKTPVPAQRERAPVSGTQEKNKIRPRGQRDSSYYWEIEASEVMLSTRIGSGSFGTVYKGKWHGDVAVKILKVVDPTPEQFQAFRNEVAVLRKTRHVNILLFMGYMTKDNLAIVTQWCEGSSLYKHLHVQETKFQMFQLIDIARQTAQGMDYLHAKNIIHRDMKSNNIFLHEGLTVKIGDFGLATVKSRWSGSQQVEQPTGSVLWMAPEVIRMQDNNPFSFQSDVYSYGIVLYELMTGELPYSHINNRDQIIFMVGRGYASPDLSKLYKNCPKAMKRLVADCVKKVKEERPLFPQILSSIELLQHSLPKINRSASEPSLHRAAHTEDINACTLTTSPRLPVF

As for `CCCS(=O)(=O)Nc1ccc(F)c(C(=O)c2c[nH]c3ncc(C#N)c(Cl)c23)c1F` [P-2004, Propane-1-sulfonic acid [3-(4-chloro-5-cyano-1H-pyrrolo[2,3-b]pyridine-3-carbonyl)-2,4-difluoro-phenyl]-amide], the IC50 in series [1], in [6] and in series [7] was < 0.1 µM throughout. Also, the “Biochemical activity ratio V600E/C” value in series [1] is on record as 0.1-10. Also, the pIC50 was < 5.00 in [2]; > 5.30 in series [3]; < 5.00 in [8]; < 5.00 in series [9]; < 5.00 in series [10]; < 5.00 in series [11]. The “turbidity threshold (L, M, H) 1.4” value in series [4] is listed as “L (low solubility if the threshold concentration is <31.3 μM)”. In addition, the “turbidity threshold (L, M, H) 4.5” value in series [4] is on record as “L (low solubility if the threshold concentration is <31.3 μM)”. Further, the “turbidity threshold (L, M, H) 6.8” value in series [4] is “L (low solubility if the threshold concentration is <31.3 μM)”. In addition, the “turbidity threshold (L, M, H) 7.4” value in [4] is given as “L (low solubility if the threshold concentration is <31.3 μM)”. In series [5], the “Biochemical activity ratio B/V600E” value is 0.1-10. The “Biochemical activity ratio B/C” value in series [5] is reported as >10.

As to `CCCS(=O)(=O)Nc1ccc(F)c(C(=O)c2c[nH]c3ncc(F)c(C#N)c23)c1F` [P-2003, Propane-1-sulfonic acid [3-(4-cyano-5-fluoro-1H-pyrrolo[2,3-b]pyridine-3-carbonyl)-2,4-difluoro-phenyl]-amide], the half-maximal inhibitory concentration (IC50) in series [1], in series [6] and in series [7] was < 0.1 µM each time. In addition, the “Biochemical activity ratio V600E/C” value in [1] is 0.1-10. In addition, the negative logarithm of the IC50 (pIC50) in [2] was 5.00 to 5.30; in [3], > 5.30; in [8], 5.00 to 5.30; in [9], < 5.00; in [10], < 5.00; in series [11] it was < 5.00. In addition, the “turbidity threshold (L, M, H) 1.4” value in [4] was “M (moderate solubility if the threshold concentration is 31.3 μM to 250 μM)”. In series [4], the “turbidity threshold (L, M, H) 4.5” value is “M (moderate solubility if the threshold concentration is 31.3 μM to 250 μM)”. Further, the “turbidity threshold (L, M, H) 6.8” value in series [4] is recorded as “M (moderate solubility if the threshold concentration is 31.3 μM to 250 μM)”. The “turbidity threshold (L, M, H) 7.4” value in series [4] was “M (moderate solubility if the threshold concentration is 31.3 μM to 250 μM)”. The “Biochemical activity ratio B/V600E” value in series [5] is 0.1-10. Moreover, the “Biochemical activity ratio B/C” value in series [5] is on record as 0.1-10.

In the case of `CCCS(=O)(=O)Nc1ccc(F)c(C(=O)c2c[nH]c3ncc(Cl)c(C)c23)c1F` [P-2008, Propane-1-sulfonic acid [3-(5-chloro-4-methyl-1H-pyrrolo[2,3-b]pyridine-3-carbonyl)-2,4-difluoro-phenyl]-amide], the IC50 in [1], in series [6] and in [7] was < 0.1 µM in each case. The “Biochemical activity ratio V600E/C” value in series [1] is reported as 0.1-10. Moreover, the pIC50 in [2] is < 5.00; in [3] it was 5.00 to 5.30; in [8], < 5.00; in [9] it was < 5.00; in series [10], 5.00 to 5.30; in [11], < 5.00. Further, in [4], the “turbidity threshold (L, M, H) 1.4” value is listed as “L (low solubility if the threshold concentration is <31.3 μM)”. Besides, in series [4], the “turbidity threshold (L, M, H) 4.5” value was “M (moderate solubility if the threshold concentration is 31.3 μM to 250 μM)”. Further, in series [4], the “turbidity threshold (L, M, H) 6.8” value is “L (low solubility if the threshold concentration is <31.3 μM)”. In addition, in series [4], the “turbidity threshold (L, M, H) 7.4” value is reported as “M (moderate solubility if the threshold concentration is 31.3 μM to 250 μM)”. Also, in [5], the “Biochemical activity ratio B/V600E” value is 0.1-10. For the same compound, in series [5], the “Biochemical activity ratio B/C” value was 0.1-10.

`Cc1c(Cl)cnc2[nH]cc(C(=O)c3c(F)ccc(NS(=O)(=O)c4ccc(C(F)(F)F)cc4)c3F)c12` [P-2011, N-[3-(5-Chloro-4-methyl-1H-pyrrolo[2,3-b]pyridine-3-carbonyl)-2,4-difluoro-phenyl]-4-trifluoromethyl-benzene sulfonamide]: the IC50 was > 0.1 µM in series [1], < 0.1 µM in series [6] and < 0.1 µM in series [7]. Besides, in [1], the “Biochemical activity ratio V600E/C” value is reported as >10. The pIC50 is < 5.00 in series [2]; < 5.00 in series [3]; < 5.00 in series [8]; < 5.00 in [9]; > 5.30 in series [10]; 5.00 to 5.30 in series [11]. The “turbidity threshold (L, M, H) 1.4” value in [4] is “L (low solubility if the threshold concentration is <31.3 μM)”. Besides, the “turbidity threshold (L, M, H) 4.5” value in series [4] is “L (low solubility if the threshold concentration is <31.3 μM)”. Also, the “turbidity threshold (L, M, H) 6.8” value in series [4] is on record as “L (low solubility if the threshold concentration is <31.3 μM)”. For the same compound, in series [4], the “turbidity threshold (L, M, H) 7.4” value was “L (low solubility if the threshold concentration is <31.3 μM)”. For the same compound, the “Biochemical activity ratio B/V600E” value in series [5] is 0.1-10. The “Biochemical activity ratio B/C” value in [5] was 0.1-10.

In the case of `CN1CCC(Nc2ncnc3[nH]cc(C(=O)c4c(F)ccc(NS(=O)(=O)c5ccc(C(F)(F)F)cc5)c4F)c23)CC1` [P-1057, N-{2,4-Difluoro-3-[4-(1-methyl-piperidin-4-ylamino)-7H-pyrrolo[2,3-d]pyrimidine-5-carbonyl]-phenyl}-4-trifluoromethyl-benzenesulfonamide], the IC50 in series [1] is > 0.1 µM; in series [6], < 0.1 µM; in series [7], < 0.1 µM. In [1], the “Biochemical activity ratio V600E/C” value is recorded as >10. In addition, the pIC50 is < 5.00 in [2] (read-out: Cyp IC50 3A4(BFC), CYP3A4, substrate BFC); < 5.00 in series [3] (setting [12]); < 5.00 in [8] (setting [13]); < 5.00 in series [9] (human, 15 min); < 5.00 in series [10] (read-out: Cyp IC50 2C19, CYP2C19, substrate CEC); < 5.00 in series [11]. Further, in series [4], the “turbidity threshold (L, M, H) 1.4” value is reported as “H (high solubility if the threshold concentration is >250 μm)”. In addition, the “turbidity threshold (L, M, H) 4.5” value in [4] was “H (high solubility if the threshold concentration is >250 μm)”. Further, in series [4], the “turbidity threshold (L, M, H) 6.8” value is reported as “M (moderate solubility if the threshold concentration is 31.3 μM to 250 μM)”. Further, in series [4], the “turbidity threshold (L, M, H) 7.4” value was “M (moderate solubility if the threshold concentration is 31.3 μM to 250 μM)”. The “Biochemical activity ratio B/V600E” value in [5] was 0.1-10. Also, the “Biochemical activity ratio B/C” value in [5] is on record as 0.1-10.

Take `CCCc1ccc(S(=O)(=O)Nc2ccc(F)c(C(=O)c3c[nH]c4ncnc(OC)c34)c2F)cc1` [P-1005, N-[2,4-Difluoro-3-(4-methoxy-7H-pyrrolo[2,3-d]pyrimidine-5-carbonyl)-phenyl]-4-propyl-benzenesulfonamide]: the figures for the IC50 in series [1], in series [6] and in series [7] were > 0.1 µM, > 0.1 µM and < 0.1 µM, respectively. Also, in series [1], the “Biochemical activity ratio V600E/C” value is recorded as >10. The pIC50 in series [2] was 5.00 to 5.30; in series [3] (setting [12]), < 5.00; in series [8] (setting [13]), < 5.00; in [9] (human, 15 min), < 5.00; in [10] it was 5.00 to 5.30; in series [11], < 5.00. The “turbidity threshold (L, M, H) 1.4” value in series [4] is on record as “H (high solubility if the threshold concentration is >250 μm)”. The “turbidity threshold (L, M, H) 4.5” value in series [4] was “L (low solubility if the threshold concentration is <31.3 μM)”. For the same compound, the “turbidity threshold (L, M, H) 6.8” value in series [4] is given as “L (low solubility if the threshold concentration is <31.3 μM)”. The “turbidity threshold (L, M, H) 7.4” value in series [4] is reported as “L (low solubility if the threshold concentration is <31.3 μM)”. The “Biochemical activity ratio B/V600E” value in [5] was 0.1-10. The “Biochemical activity ratio B/C” value in [5] is on record as 0.1-10.
